Experimental data from US20250275993A1, “GLYCOSYLATION INHIBITORS AS THERAPEUTICS FOR STROKE” (The Regents of the University of California, priority 2022, published 2025).

Assays:
[1] = test system: 4T1 cells; assay: 4T1 proliferation assay (MTS); assay type: cell-based
[2] = ManN stability in wound fluid from S. aureus infected mice; assay type: in vitro ADME, mouse; conditions: up to 24 hours at 37° C.
Protocol: To test ManN stability in wound fluid collected from mice with skin infection as described below, 1.5 μl of 5% ManN solution was added to each 200 μl wound fluid which was first diluted 1:1 (v/v) with PBS. At each time point, samples were taken from 37° C. incubator and stored at −80° C. Plasma proteins were precipitated by adding ice cold acetonitrile to plasma: acetonitrile 1:3 (v/v) ratio. Samples were kept over ice for 1 hr and then centrifuged at 12000 g for 10 min at 7° C. to form a pellet. Supernatants were transferred to other tubed, dried down on a Speed Vac and then reconstituted in UltraPure distilled water and filtered through pre-washed Nanosep 3K Omega filters (Pall Corporation). The filtrate was dried down on Speed Vac. The dry samples were dissolved in 100 μl of water and 2 μl plasma or wound fluid sample was subjected to HPLC analysis. Neutral and amino sugars were separated on a Dionex CarboPac PAI column 4 mm×250 mm with 4 mm×50 mm guard column. An isocratic gradient of 19 mM sodium hydroxide with 0.95 mM sodium acetate was used at a flow rate of 1 ml/min with 20 min run. Data was collected using the Dionex ICS-3000 HPLC system with pulsed amperometric detector using standard Quad waveform. ManN was identified and quantified by comparison with monosaccharide standard using Thermo Scientific Chromeleon software. No ManN samples served as negative controls. […]

In the case of N[C@H](C=O)[C@@H](O)[C@H](O)[C@H](O)CO [ManN, 2-Amino-2-deoxy-D-mannose], the “toxicity on 4T1 cells” value ([1]; 5 mM) is reported as “significant toxicity”, the “growth of 4T1” value ([1]; ManN, MTS) is reported as “did not promote growth” and the “loss of free ManN in wound fluid” value [2] is reported as “No significant loss”.
